Data: patent publication US20130123358A1, “Metabolic Benefits to Butyrate as a Chronic Diet Supplement” (priority 2009, published 2013)
Where two headings read alike, the source gives them in different places.

Key:
HDAC = experiment: Histone Deacetylase Assay Kit, inhibition by butyrate isoforms; conditions: Histone Deacetylase Assay Kit (Upstate), FIG. 8
Text: Several isoforms of butyrate were purchased (Sigma Aldrich Chemicals, St. Louis, Mo.) and tested for inhibitory activity of HDAC, using a Histone Deacetylase Assay Kit (Upstate Biotechnology, Lake Placid, N.Y.).

[1] = Butyrate concentration in plasma; format: in vivo; conditions: mouse, oral, 5 % w/w in HFD, butyrate 5% w/w in HFD for 16 weeks
Procedure: The serum fatty acids including butyrate were examined using a protocol described elsewhere (18), and as described below in Example 10. The fatty acids in feces were determined using a protocol as described by Schwarz (19). Triglyceride and cholesterol were measured in the whole blood with the Cardiochek portable test system.
The butyrate concentration was analyzed in plasma collected from the butyrate and control groups in mice fed HFD for 16 weeks. In a fasted condition (overnight fast), the butyrate concentration was 7.23±0.93 μg/ml in the butyrate group and 5.71±0.38 μg/ml in the control. […] Data are presented as means±SE (n=6). * P<0.05; ** P<0.001.

[2] = test system: C57BL/6J mice on high fat diet; experiment: Hyperinsulinemic-euglycemic clamp; format: in vivo, mouse; conditions: 5% butyrate in HFD 4 weeks
Procedure: Hyperinsulinemic-euglycemic clamps were performed at the Penn State Mouse Metabolic Phenotyping Center. The clamps were conducted in C57BL/6 mice at 12 weeks of age after 4 weeks on HFD with or without butyrate supplement. Following overnight fast (˜15 hour), a 2-hour hyperinsulinemic-euglycemic clamp was conducted in awake mice with a primed (150 mU/kg body weight) and continuous infusion of human regular insulin (Humulin; Eli Lilly, Indianapolis, Ind.) at a rate of 2.5 mU/kg/min to raise plasma insulin within a physiological range (Kim et al., 2004). Blood samples (20 μl) were collected at 20 min intervals for the immediate measurement of plasma glucose concentration, and 20% glucose was infused at variable rates to maintain glucose at basal concentrations. Basal and insulin-stimulated whole body glucose turnover were estimated with a continuous infusion of [3-^3H]glucose (PerkinElmer, Boston, Mass.) for 2 hours prior to the clamps (0.05 μCi/min) and throughout the clamps (0.1 μCi/min), respectively. To estimate insulin-stimulated glucose uptake in individual tissues, 2-deoxy-D-[1-^14C]glucose (2-[^14C]DG) was administered as a bolus (10 μCi) at 75 min after the start of clamps. Blood samples were taken before, during, and at the end of clamps for the measurement of plasma [^3H]glucose, ^3H2O, 2-[^14C]DG concentrations, and/or insulin concentrations. At the end of the clamps, mice were euthanized, and tissues were taken for biochemical and molecular analysis.
Glucose concentrations during clamps were analyzed using […] plasma by a glucose oxidase method on a Beckman Glucose Analyzer 2 (Beckman, Fullerton, Calif.). Plasma insulin concentrations were measured by ELISA using kits from Alpco Diagnostics (Salem, N.H.). Plasma concentrations of [3-^3H]glucose, 2-[^14C]DG, and ^3H2O were determined following deproteinization of plasma samples as previously described. The radioactivity of ^3H in tissue glycogen was determined by digesting tissue samples in KOH and precipitating glycogen with ethanol. For the determination of tissue 2-[^14C]DG-6-P content, tissue samples were homogenized, and the supernatants were subjected to an ion-exchange column to separate 2-[^14C]DG-6-P from 2-[^14C]DG. Rates of basal hepatic glucose production (HGP) and insulin-stimulated whole body glucose turnover were determined as the ratio of the [^3H]glucose infusion rate to the specific activity of plasma glucose at the end of the basal period and during the final 30 min of clamp, respectively (Kim et al., 2004). Insulin-stimulated rate of HGP during clamp was determined by subtracting the glucose infusion rate from whole body glucose turnover. Insulin-stimulated glucose uptake in individual tissues was assessed by determining the tissue content of 2-[^14C]DG-6-P and plasma 2-[^14C]DG profile.
Hyperinsulinemic-euglycemic clamps were performed at the Penn State Mouse Metabolic Phenotyping Center. The clamps were conducted in C57BL/6J mice at 12 weeks of age after 4 weeks on HFD with or without a 5% butyrate supplement. Following overnight fast (˜15 hour), a 2-hour hyperinsulinemic-euglycemic clamp was conducted in awake mice with a primed (150 mU/kg body weight) and continuous infusion of human regular insulin (Humulin; Eli Lilly, Indianapolis, Ind.) at a rate of 2.5 mU/kg/min to raise plasma insulin within a physiological range (38). […]

liver cells = conditions: isolated rat liver; cited from earlier work
[3] = test system: C57BL/6J mice on high fat diet; experiment: Systemic insulin sensitivity (fasting glucose, insulin, ITT, HOMA-IR) in HFD mice; format: in vivo, mouse; conditions: butyrate 5% w/w in HFD
Procedure: ITT was conducted by intra-peritoneal (i.p.) injection of insulin (I9278, Sigma) at 0.75 U/kg body weight in mice after a 4 hour fast as previously described (15). Blood glucose was monitored in the tail vein blood using the FreeStyle blood glucose monitoring system (TheraSense, Phoenix, Ariz.).
To test this possibility, systemic insulin sensitivity was analyzed using fasting glucose, insulin, and insulin tolerance.
Tail vein blood was used for the glucose assay after 16 hr fasting during the period of HFD feeding. […] The insulin was determined at 16 weeks on HFD in fasting condition with Lincoplex kit (#MADPK-71k-03, Linco Research Inc., St. Charles, Mo.). […] ITT was done at 12 weeks on HFD (at 16 weeks of age). In FIGS. 2A-2C, data are presented as means±SE (N=9). *P<0.05, **P<0.001 by Student's t test. […] After an overnight fast, blood glucose and insulin were measured and used to determine insulin sensitivity through HOMA IR (IR=fasting insulin […] X fasting glucose mg/dL÷405). Values are the means±SE (N=8 mice). ** P<0.001. […] The gastrocnemius muscle was isolated after insulin (0.75 U/kg) injection in mice for 30 min and used to prepare the whole cell lysate for an immunoblot. The mice on HFD for 13 weeks were used in the signaling assay. FIG. 2F illustrates the degree of the blot signal in the panel 2E, by quantifying the signal and normalizing with protein loading. **P<0.001 (n=2).

pigs = conditions: dietary; cited from earlier work

CCCC(=O)[O-].[Na+] [sodium butyrate]
inhibitory activity of HDAC (HDAC): inhibited HDAC
concentration at 16 weeks ([1]; fed, read-out: butyrate concentration in plasma, fed condition): 9400 ± 1360 ng/mL
concentration at 16 weeks ([1]; overnight fast, read-out: butyrate concentration in plasma, fasted condition): 7230 ± 930 ng/mL
insulin sensitivity in the liver (hepatic glucose production) ([2]; clamp): also improved
insulin-stimulated glucose uptake in brown adipose tissue ([2]; clamp): improved
insulin-stimulated glucose uptake in white adipose tissue ([2]; clamp): improved
insulin-stimulated glucose uptake in muscle ([2]; clamp, gastrocnemius): improved
glucose infusion rate, increase ([2]; last 40 min of clamps): 40%
energy metabolism (liver cells) (liver cells): impairment
insulin tolerance test (ITT) response ([3]; 12 weeks, insulin 0.75 U/kg i.p., 30, 60, 120 and 180 min): much better response to insulin at all time points
fasting insulin, lower than control ([3]; 16 weeks on HFD): 50%
fasting glucose (HFD-induced increase) ([3]; after 10 weeks, 16 hr fasting): this increase was not observed
HOMA-IR, lower than control ([3]; overnight fast): 60%
daily body mass gain (pigs): increase
